Data on two compounds can be found in ChEMBL document CHEMBL1821596, “Isolation and structural identification of a direct-acting mutagen derived from N-nitroso-N-methylpentylamine and Fenton's reagent with copper ion” (Bioorg Med Chem, 2011).

Holding throughout (format): toxicity, organism-based
Holding throughout (details): salmonella enterica subsp. enterica serovar typhimurium

Series [1] has as its system Salmonella typhimurium. The experiment in a line: Mutagenic activity in Salmonella Typhimurium TA1535 at 100 uM after 2 hrs by plate-incorporating method in presence of Cu2+-H2O2.
For series [2], the system named is Salmonella typhimurium. The experiment in a line: Mutagenic activity in Salmonella Typhimurium TA1535 at 100 uM after 2 hrs by plate-incorporating method in presence of Fe2+-H2O2.
Series [3] has as its system Salmonella typhimurium. The series can be described thus: Mutagenic activity in Salmonella Typhimurium TA1535 at 100 uM after 2 hrs by plate-incorporating method in presence of Cu2+-Fe2+.
Series [4] deals with Salmonella typhimurium. The experiment in a line: Mutagenic activity in Salmonella Typhimurium TA1535 at 100 uM after 2 hrs by plate-incorporating method in presence of H2O2.
The subject of series [5] is Salmonella typhimurium. The series can be described thus: Mutagenic activity in Salmonella Typhimurium TA1535 at 100 uM after 2 hrs by plate-incorporating method in presence of Fe2+-Cu2+-H2O2.
Series [6] relates to Salmonella typhimurium. The series can be described thus: Mutagenic activity in Salmonella Typhimurium TA1535 at 100 uM after 2 hrs by plate-incorporating method in presence of Fe2+-Cu2+-H2O2 and nitric oxide.
Series [7] has as its system Salmonella typhimurium. The experiment in a line: Mutagenic activity in Salmonella Typhimurium TA1535 at 100 uM after 2 hrs by plate-incorporating method.

Molecules are shown by their SMILES.

For `CCCCCN(C)N=O`, the Activity result in series [1] was “Toxic”; in series [2], “Non-toxic”; in series [3], “Non-toxic”; in series [4], “Non-toxic”; in series [5], “Toxic”; in series [6] it was “Toxic”.
For `CCC1([N+](=O)[O-])CCN=[N+]1[O-]` (configuration not stated), the Activity entry in series [7] is “Toxic”.
